Publication PMC9538324 (Journal of medical virology, 2022)

Legend:
SARS-CoV-2 Beta variant = experiment: Virucidal assay; conditions: virus pretreated with 10 μM, compared with untreated and post-treated controls
[1] = human, in vivo; cited from earlier work

CCc1nc(C(N)=O)c(Nc2ccc(N3CCC(N4CCN(C)CC4)CC3)c(OC)c2)nc1NC1CCOCC1 [Gilteritinib, gilteritinib]
virucidal effect on virus viability (SARS-CoV-2 Beta variant): did not greatly reduce viability
clinical outcome [1]: successful remission
